# From patent US20010055565A1, “Method of detecting cyclooxygenase-2” (G.D. Searle & Co., priority 1995, published 2001)
row,melting point [°C],Compound
1,183.1 to 185.6,"COc1ccc(-c2cc(C(F)(F)F)nn2-c2ccc(S(N)(=O)=O)cc2)cc1I [Example 7, 4-[5-(3-Iodo-4-methoxyphenyl)-3-trifluoromethyl-1H-pyrazol-1-yl]benzenesulfonamide]"
2,184.2 to 188.4,"COc1ccc(-c2cc(C(F)F)nn2-c2ccc(S(N)(=O)=O)cc2)cc1I [Example 6, 4-[3-(Difluoromethyl)-5-(3-iodo-4-methoxyphenyl)-1H-pyrazol-1-yl]benzenesulfonamide]"
3,192.3 to 193.3,"COc1ccc(-c2cc(CO)nn2-c2ccc(S(N)(=O)=O)cc2)cc1I [Example 5, 4-[3-(Hydroxymethyl)-5-(3-iodo-4-methoxyphenyl)-1H-pyrazol-1-yl]benzenesulfonamide]"
